The results in this text go back to publication PMC6934184, “Selective DNA-PKcs inhibition extends the therapeutic index of localized radiotherapy and chemotherapy” (The Journal of Clinical Investigation, 2019).

This assay addresses T1, MAP3K11 (MLK3) (Homo sapiens, UniProt Q16584).
T1 construct: purchased Thermo Fisher Scientific (Life Technologies) SelectScreen
Kind of assay: SelectScreen LanthaScreen. The format is binding. As to conditions: 1 µM. The method in brief:
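Percent values come from Thermo SelectScreen profiling of NU5455, combining activity and binding assays. CSF1R was run in Z'LYTE format at Km app ATP, and CAMK1 in Adapta format with ATP listed at 10.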
On the technique in general: In TR-FRET formats the signal depends on donor and acceptor labels being close together.

T1 sequence (Q16584 whole entry): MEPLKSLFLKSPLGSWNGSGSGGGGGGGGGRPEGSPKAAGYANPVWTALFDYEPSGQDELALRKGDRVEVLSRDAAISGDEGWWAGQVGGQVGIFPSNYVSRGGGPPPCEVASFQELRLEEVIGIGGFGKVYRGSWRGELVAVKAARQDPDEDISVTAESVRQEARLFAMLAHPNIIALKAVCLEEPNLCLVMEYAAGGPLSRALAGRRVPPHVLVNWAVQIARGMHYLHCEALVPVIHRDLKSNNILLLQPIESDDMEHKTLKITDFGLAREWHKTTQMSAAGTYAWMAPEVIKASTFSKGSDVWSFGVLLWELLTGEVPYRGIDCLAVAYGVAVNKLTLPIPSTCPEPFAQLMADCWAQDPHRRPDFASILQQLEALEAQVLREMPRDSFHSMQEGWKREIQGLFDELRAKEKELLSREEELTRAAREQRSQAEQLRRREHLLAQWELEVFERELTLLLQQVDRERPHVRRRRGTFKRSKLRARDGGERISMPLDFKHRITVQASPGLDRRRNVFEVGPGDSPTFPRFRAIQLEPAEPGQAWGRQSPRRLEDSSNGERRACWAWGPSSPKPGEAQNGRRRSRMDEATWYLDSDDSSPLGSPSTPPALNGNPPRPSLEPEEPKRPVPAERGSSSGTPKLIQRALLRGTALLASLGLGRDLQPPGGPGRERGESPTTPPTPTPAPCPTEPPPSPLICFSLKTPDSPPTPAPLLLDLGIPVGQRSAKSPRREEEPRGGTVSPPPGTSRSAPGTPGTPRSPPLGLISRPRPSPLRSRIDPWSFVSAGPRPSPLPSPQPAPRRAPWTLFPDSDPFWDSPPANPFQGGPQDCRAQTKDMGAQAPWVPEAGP

As for `CN(C(=O)CN1CCOCC1)c1ccc2sc3c(-c4cccc5c(=O)cc(N6CC7CCC(C6)O7)oc45)cccc3c2c1` [NU5455], the “% displacement” value is on record as 4.0%.
